{"source": "patent US11345964B2", "about": "“BCR-ABL truncation mutations” (Quest Diagnostics Investments LLC, priority 2009, dated 2022)", "origin": "cited, not measured here", "test_system": "patients with myeloproliferative diseases", "conditions": "imatinib therapy", "note": "Where a name gives a salt, the structure may show the parent alone. Read-outs that look alike come from different tables or passages of the source.", "data": [{"compound": "Cc1ccc(NC(=O)c2ccc(CN3CCN(C)CC3)cc2)cc1Nc1nccc(-c2cccnc2)n1", "note": "[imatinib, imatinib mesylate]", "values": [{"measurement": "Primary resistance (failure to achieve any hematologic response) rate", "setting": "accelerated phase", "result": 9, "unit": "%"}, {"measurement": "Secondary resistance (hematologic recurrence) rate", "setting": "accelerated phase", "result": 32, "unit": "%"}, {"measurement": "Primary resistance (failure to achieve any hematologic response) rate", "setting": "blast phase", "result": 51, "unit": "%"}, {"measurement": "Secondary resistance (hematologic recurrence) rate", "setting": "blast phase", "result": 41, "unit": "%"}, {"measurement": "Primary resistance (failure to achieve any hematologic response) rate", "setting": "chronic phase", "result": 3, "unit": "%"}, {"measurement": "Secondary resistance (hematologic recurrence) rate", "setting": "chronic phase", "result": 22, "unit": "%"}]}]}
